Earlier results, collected in patent US6310089A, “Composition for the administration of a D1-agonists” (West Pharmaceutical Services Drug Delivery & Clinical …, priority 1998, dated 2001).

Tests used:
Parkinson's disease = conditions: D1 partial agonists

SMILES	agonism at dopamine D1 receptors (dopamine D1 receptors)	evaluation outcome (Parkinson's disease)
CN1Cc2ccccc2C2c3cccc4[nH]cc(c34)CC21 (single isomer, unassigned) [CY208.243]	partial agonists	inconclusive results
Oc1cc2c(cc1O)C(c1ccccc1)CNCC2 (stereo not shown) [SKF 38393]	partial agonists	inconclusive results
